Laboratory results taken from ChEMBL document CHEMBL1142186, “Multistep resistance selection and postantibiotic-effect studies of the antipneumococcal activity of LBM415 compared to other agents” (2007).
Converted amounts (≈) assume the structure as drawn.

Legend:
Streptococcus pneumoniae [1] = experiment: Antibacterial activity against moxifloxacin resistance selected Streptococcus pneumoniae 3009 with GyrA S81F and ParC D83N mutation after 10 antibiotic-free subcultures by macrodilution method; type: functional
Streptococcus pneumoniae [2] = experiment: Antibacterial activity against clarithromycin resistance selected Streptococcus pneumoniae 3009 after 10 antibiotic-free subcultures by macrodilution method; type: functional
Streptococcus pneumoniae [3] = experiment: Antibacterial activity against azithromycin resistance selected Streptococcus pneumoniae 2527 after 10 antibiotic-free subcultures by macrodilution method; type: functional
Streptococcus pneumoniae [4] = experiment: Antibacterial activity against gatifloxacin resistance selected Streptococcus pneumoniae 1076 with ParC S79Y mutation after 10 antibiotic-free subcultures by macrodilution method; type: functional
Streptococcus pneumoniae [5] = experiment: Antibacterial activity against Streptococcus pneumoniae 1077 by macrodilution method; type: functional
Streptococcus pneumoniae [6] = experiment: Antibacterial activity against azithromycin resistance selected Streptococcus pneumoniae 3243 with L22 insertion 93SFRPRA94 mutation after 33 passages by macrodilution method; type: functional
Streptococcus pneumoniae [7] = experiment: Antibacterial activity against Streptococcus pneumoniae assessed as period of suppression of bacterial growth; type: functional
Streptococcus pneumoniae [8] = experiment: Antibacterial activity against moxifloxacin resistance selected Streptococcus pneumoniae 19 with GyrA S81F mutation after 10 antibiotic-free subcultures by macrodilution method; type: functional
Streptococcus pneumoniae [9] = experiment: Antibacterial activity against azithromycin resistance selected Streptococcus pneumoniae 3243 with L22 insertion 93SFRPRA94 mutation after 10 antibiotic-free subcultures by macrodilution method; type: functional
Streptococcus pneumoniae [10] = experiment: Antibacterial activity against gatifloxacin resistance selected Streptococcus pneumoniae 3009 after 10 antibiotic-free subcultures by macrodilution method; type: functional
Streptococcus pneumoniae [11] = experiment: Antibacterial activity against moxifloxacin resistance selected Streptococcus pneumoniae 1076 with ParC S79Y mutation after 10 antibiotic-free subcultures by macrodilution method; type: functional
Streptococcus pneumoniae [12] = experiment: Antibacterial activity against Streptococcus pneumoniae 3243 by macrodilution method; type: functional
Streptococcus pneumoniae [13] = experiment: Antibacterial activity against levofloxacin resistance selected Streptococcus pneumoniae 19 with GyrA S81Y and ParC D83Y mutation after 10 antibiotic-free subcultures by macrodilution method; type: functional
Streptococcus pneumoniae [14] = experiment: Antibacterial activity against gatifloxacin resistance selected Streptococcus pneumoniae 37 with GyrA S81Y, GyrB E474K and ParC S79Y mutation after 10 antibiotic-free subcultures by macrodilution method; type: functional
Streptococcus pneumoniae [15] = experiment: Antibacterial activity against clarithromycin resistance selected Streptococcus pneumoniae 3665 after 10 antibiotic-free subcultures by macrodilution method; type: functional
Streptococcus pneumoniae [16] = experiment: Antibacterial activity against moxifloxacin resistance selected Streptococcus pneumoniae 3243 after 10 antibiotic-free subcultures by macrodilution method; type: functional
Streptococcus pneumoniae [17] = experiment: Antibacterial activity against moxifloxacin resistance selected Streptococcus pneumoniae 3665 with GyrA S81Y mutation after 10 antibiotic-free subcultures by macrodilution method; type: functional
Streptococcus pneumoniae [18] = experiment: Antibacterial activity against azithromycin resistance selected Streptococcus pneumoniae 2527 after 20 passages by macrodilution method; type: functional
Streptococcus pneumoniae [19] = experiment: Antibacterial activity against azithromycin resistance selected Streptococcus pneumoniae 1077 with 23S rRNA A2058G mutation after 29 passages by macrodilution method; type: functional
Streptococcus pneumoniae [20] = experiment: Antibacterial activity against levofloxacin resistance selected Streptococcus pneumoniae 3009 with GyrA S81Y and ParC S79Y mutation after 10 antibiotic-free subcultures by macrodilution method; type: functional
Streptococcus pneumoniae [21] = experiment: Antibacterial activity against azithromycin resistance selected Streptococcus pneumoniae 1077 with 23S rRNA A2058G mutation after 10 antibiotic-free subcultures by macrodilution method; type: functional
Streptococcus pneumoniae [22] = experiment: Antibacterial activity against Streptococcus pneumoniae 2527 by macrodilution method; type: functional
Streptococcus pneumoniae [23] = experiment: Antibacterial activity against moxifloxacin resistance selected Streptococcus pneumoniae 24 with GyrA S81Y, GyrB P413S and ParC S79F mutation after 10 antibiotic-free subcultures by macrodilution method; type: functional
Streptococcus pneumoniae [24] = experiment: Antibacterial activity against clarithromycin resistance selected Streptococcus pneumoniae 3676 after 10 antibiotic-free subcultures by macrodilution method; type: functional
Streptococcus pneumoniae [25] = experiment: Antibacterial activity against clarithromycin resistance selected Streptococcus pneumoniae 3243 with 23S rRNA A2059T mutation after 10 antibiotic-free subcultures by macrodilution method; type: functional
Streptococcus pneumoniae [26] = experiment: Antibacterial activity against moxifloxacin resistance selected Streptococcus pneumoniae 3676 with GyrA E85G, GyrB S478I and ParC S79Y mutation after 10 antibiotic-free subcultures by macrodilution method; type: functional
Streptococcus pneumoniae [27] = experiment: Antibacterial activity against gatifloxacin resistance selected Streptococcus pneumoniae 37 with GyrA S81Y, GyrB E474K and ParC S79Y mutation after 14 passages by macrodilution method; type: functional
Streptococcus pneumoniae [28] = experiment: Antibacterial activity against Streptococcus pneumoniae 3009 by macrodilution method; type: functional
Streptococcus pneumoniae [29] = experiment: Antibacterial activity against gatifloxacin resistance selected Streptococcus pneumoniae 3009 after 14 passages by macrodilution method; type: functional
Streptococcus pneumoniae [30] = experiment: Antibacterial activity against Streptococcus pneumoniae 1076 by macrodilution method; type: functional
Streptococcus pneumoniae [31] = experiment: Antibacterial activity against gatifloxacin resistance selected Streptococcus pneumoniae 1076 with ParC S79Y mutation after 20 passages by macrodilution method; type: functional
Streptococcus pneumoniae [32] = experiment: Antibacterial activity against Streptococcus pneumoniae 37 by macrodilution method; type: functional
Streptococcus pneumoniae [33] = experiment: Antibacterial activity against moxifloxacin resistance selected Streptococcus pneumoniae 3243 after 20 passages by macrodilution method; type: functional
Streptococcus pneumoniae [34] = experiment: microbe, parasite or virus in culture
Streptococcus pneumoniae [35] = experiment: Antibacterial activity against moxifloxacin resistance selected Streptococcus pneumoniae 1076 with ParC S79Y mutation after 35 passages by macrodilution method; type: functional
Streptococcus pneumoniae [36] = experiment: Antibacterial activity against moxifloxacin resistance selected Streptococcus pneumoniae 3009 with GyrA S81F and ParC D83N mutation after 19 passages by macrodilution method; type: functional
Streptococcus pneumoniae [37] = experiment: Antibacterial activity against moxifloxacin resistance selected Streptococcus pneumoniae 19 with GyrA S81F mutation after 32 passages by macrodilution method; type: functional
Streptococcus pneumoniae [38] = experiment: Antibacterial activity against moxifloxacin resistance selected Streptococcus pneumoniae 3676 with GyrA E85G, GyrB S478I and ParC S79Y mutation after 50 passages by macrodilution method; type: functional
Streptococcus pneumoniae [39] = experiment: Antibacterial activity against moxifloxacin resistance selected Streptococcus pneumoniae 3665 with GyrA S81Y mutation after 38 passages by macrodilution method; type: functional

Row | Compound | MIC (Streptococcus pneumoniae [1]) [µg/mL] | MIC (Streptococcus pneumoniae [2]) [µg/mL] | MIC (Streptococcus pneumoniae [3]) [µg/mL] | MIC (Streptococcus pneumoniae [4]) [µg/mL] | Post Antibiotic Effe (Streptococcus pneumoniae [7]) [h] | MIC (Streptococcus pneumoniae [8]) [µg/mL] | MIC (Streptococcus pneumoniae [9]) [µg/mL] | MIC (Streptococcus pneumoniae [10]) [µg/mL] | MIC (Streptococcus pneumoniae [11]) [µg/mL] | MIC (Streptococcus pneumoniae [13]) [µg/mL] | MIC (Streptococcus pneumoniae [14]) [µg/mL] | MIC (Streptococcus pneumoniae [15]) [µg/mL] | MIC (Streptococcus pneumoniae [16]) [µg/mL] | MIC (Streptococcus pneumoniae [17]) [µg/mL] | MIC (Streptococcus pneumoniae [20]) [µg/mL] | MIC (Streptococcus pneumoniae [21]) [µg/mL] | MIC (Streptococcus pneumoniae [23]) [µg/mL] | MIC (Streptococcus pneumoniae [24]) [µg/mL] | MIC (Streptococcus pneumoniae [25]) [µg/mL] | MIC (Streptococcus pneumoniae [26]) [µg/mL] | further results
1 | CC[C@H]1OC(=O)[C@H](C)[C@@H](O[C@H]2C[C@@](C)(OC)[C@@H](O)[C@H](C)O2)[C@H](C)[C@@H](O[C@@H]2O[C@H](C)C[C@H](N(C)C)[C@H]2O)[C@](C)(O)C[C@@H](C)CN(C)[C@H](C)[C@@H](O)[C@]1(C)O [AZITHROMYCIN] | > 128 | 128 (≈ 171 µM) | 4 (≈ 5.34 µM) | > 128 | 3.1 | > 128 | 0.5 (≈ 0.668 µM) | > 128 | > 128 | > 128 | > 128 | 8 (≈ 10.7 µM) | 0.016 (≈ 0.0214 µM) | 8 (≈ 10.7 µM) | 128 (≈ 171 µM) | > 64 | > 128 | 16 (≈ 21.4 µM) | 1 (≈ 1.34 µM) | 4 (≈ 5.34 µM) | MIC (Streptococcus pneumoniae [5]): 0.03 µg/mL (≈ 0.0401 µM); MIC (Streptococcus pneumoniae [6]): 0.25 µg/mL (≈ 0.334 µM); MIC (Streptococcus pneumoniae [12]): 0.03 µg/mL (≈ 0.0401 µM); MIC (Streptococcus pneumoniae [18]): 4 µg/mL (≈ 5.34 µM); MIC (Streptococcus pneumoniae [19]): > 64 µg/mL; MIC (Streptococcus pneumoniae [22]): 0.016 µg/mL (≈ 0.0214 µM)
2 | COc1c(N2CCNC(C)C2)c(F)cc2c(=O)c(C(=O)O)cn(C3CC3)c12 (stereo not given) [GATIFLOXACIN] | 2 (≈ 5.33 µM) | 0.25 (≈ 0.666 µM) | 8 (≈ 21.3 µM) | 8 (≈ 21.3 µM) | 1.7 | 0.5 (≈ 1.33 µM) | 0.25 (≈ 0.666 µM) | 8 (≈ 21.3 µM) | 8 (≈ 21.3 µM) | 4 (≈ 10.7 µM) | 16 (≈ 42.6 µM) | 0.25 (≈ 0.666 µM) | 1 (≈ 2.66 µM) | 0.5 (≈ 1.33 µM) | 8 (≈ 21.3 µM) | 8 (≈ 21.3 µM) | 4 (≈ 10.7 µM) | 0.5 (≈ 1.33 µM) | 0.25 (≈ 0.666 µM) | 2 (≈ 5.33 µM) | MIC (Streptococcus pneumoniae [27]): 16 µg/mL (≈ 42.6 µM); MIC (Streptococcus pneumoniae [28]): 1 µg/mL (≈ 2.66 µM); MIC (Streptococcus pneumoniae [29]): 16 µg/mL (≈ 42.6 µM); MIC (Streptococcus pneumoniae [30]): 2 µg/mL (≈ 5.33 µM); MIC (Streptococcus pneumoniae [31]): 16 µg/mL (≈ 42.6 µM); MIC (Streptococcus pneumoniae [32]): 1 µg/mL (≈ 2.66 µM)
3 | COc1c(N2C[C@@H]3CCCN[C@@H]3C2)c(F)cc2c(=O)c(C(=O)O)cn(C3CC3)c12 [MOXIFLOXACIN] |  |  |  |  | 1.5 | 2 (≈ 4.98 µM) |  |  |  |  | 16 (≈ 39.9 µM) |  |  |  | 4 (≈ 9.96 µM) |  |  |  |  | 8 (≈ 19.9 µM) | MIC (Streptococcus pneumoniae [33]): 1 µg/mL (≈ 2.49 µM); MIC (Streptococcus pneumoniae [34]): 4 µg/mL (≈ 9.96 µM); MIC (Streptococcus pneumoniae [30]): 1 µg/mL (≈ 2.49 µM); MIC (Streptococcus pneumoniae [35]): 8 µg/mL (≈ 19.9 µM); MIC (Streptococcus pneumoniae [36]): 2 µg/mL (≈ 4.98 µM); MIC (Streptococcus pneumoniae [37]): 1 µg/mL (≈ 2.49 µM); MIC (Streptococcus pneumoniae [38]): 8 µg/mL (≈ 19.9 µM); MIC (Streptococcus pneumoniae [39]): 1 µg/mL (≈ 2.49 µM)
